Reference: patent US9737525B2, “Small molecule activators of NRF2 pathway” (The General Hospital Corporation, priority 2013, dated 2017)
Entries after “also recorded” stand apart in the source; their conditions may differ.

Key:
[1] = system: NRF2-target proteins NQO1 and GCLM; experiment: NQO1 and GCLM proteins in wild type mouse cortical neurons (immunoblotting); assay type: cell-based; conditions: wild type mouse cortical neurons (6 DIV), 24 hr
Description: To assess protein levels, cell extracts were prepared from cells washed with PBS and lysed with buffer containing 2% SDS, Complete EDTA-free Protease Inhibitor Cocktail (Roche) and 1 mM phenylmethylsulfonyl fluoride. To prepare brain extracts for analysis, frozen mouse cortical tissues were homogenized in PBS containing protease inhibitors with an Kontes Pellet Pestle (Kimble/Kontes). They were later sonicated and lysed overnight at 4° C. in 2× volume of lysis buffer containing 2% SDS and protease inhibitors. Protein concentrations in ST14A cell extracts and homogenized cortical tissues were evaluated using a BCA analysis kit and normalized. Samples were prepared in a SDS buffer containing DTT and separated on bis-acrylamide protein gels via electrophoresis and transferred onto a 0.2 μm PVDF membrane). Membranes were probed for NQO1 (Sigma N5288, 1:1,000), GCLM, (Abcam ab126704, 1:800), SIRT2 (Sigma S8447, 1:2,500), histone H3 (Cell Signaling 4499, 1:2,000), acetylated H3 (K56) (Millipore 04-1135, 1:500), TNFα (Abcam ab1793, 1:1,500), GADPH (Millipore MAB374, 1:10,000), actin (Sigma A2066, 1:1250), α-tubulin (Sigma T6074, 1:20,000), and acetylated α-tubulin (Sigma T6793, 1:2,500) overnight in 5% milk in PBST at 4° C. on a rocker. Membranes were thrice washed in PBST for 15 min on a shaker and incubated in either an anti-rabbit-HRP (Bio-Rad 170-5046, 1:10,000) or anti-mouse-HRP (Sigma A3682, 1:4,000) secondary solution as appropriate in 3% milk in PBST for 1 hr at room temperature on a rocker. After four washes of 15 min in PBST on a shaker, blots were visualized using SuperSignal West Pico Chemiluminescent Substrate (Pierce 34080) or SuperSignal West Dura Extended Duration Substrate (Thermo 34075) and exposed on Scientific Imaging Film (Kodak 864 6770).
Dose-response induction of NRF2-target proteins NQO1 and GCLM in wild type mouse cortical neurons (6 DIV) treated with MIND4 and MIND4-17 for 24 hr was consistent with the compound effects on ARE-dependent gene transcription (FIG. 24E).

[2] = system: Nrf2-responsive proteins NQO1 and GCLM; experiment: NRF2 responses in wild type and mutant SOD1 (G93A) primary astroglia; assay type: cell-based; conditions: wild type and mutant SOD1 (G93A) mouse primary astroglia
Description: Primary glia was derived from wild type and mutant SOD1 (G93A) mice and treated with MIND4 and MIND4-17 at indicated doses. The expression NRF2 responsive NQO1 and GCLM proteins were detected by immunochemistry. […] Importantly, compounds had no effects on human mutant SOD1 transgene, expressing in mice from human promoter.

NQO1 = experiment: Quantitative NQO1 inducer bioassay in Hepa1c1c7 cells; assay type: cell-based, murine; conditions: for Effect of GSH pre-incubation on NQO1 inducer potency: 1 mM GSH at 37° C. for 30 min before cell treatment; for CD value (Concentration which Doubles the specific activity of NQO1): Hepa1c1c7 cells; for CD value (Concentration which Doubles the specific activity of NQO1) / EC (2-fold NQO1 activity): 48 hr exposure; for EC (2-fold NQO1 activity): Mus musculus, Hepa-1c1c7, Table 3, Concentration which Doubles the specific activity of NQO1, read-out: NQD1 CD
Description: Cells grown in 96-well plates were exposed to serial dilutions of each compound for 48 hr, and the NQO1 enzyme activity was determined in cell lysates. Results are shown as average values of 8 replicate wells. The standard deviation in each case was less than 5%.
Next, using a quantitative NQO1 inducer bioassay in murine Hepa1c1c7 cells and the CD value (Concentration which Doubles the specific activity of NQO1) as a measure of potency (see Table 2), the activities of the MIND4 analogs were tested and ranked.
Inducer potency was quantified by use of the NQO1 bioassay in Hepa1c1c7 cells as described [Prochaska, 1988]. To examine the effect of GSH on inducer potency, compounds were incubated in cell culture medium containing 1 mM GSH at 37° C. for 30 min before cell treatment.

[3] = target: human recombinant SIRT2 deacetylase (Homo sapiens (Human), UniProt Q8IXJ6); experiment: Sirtuin biochemical deacetylation assay, SIRT2; conditions: for SIRT2 inhibition: dose-response
human recombinant SIRT2 deacetylase, sequence (Q8IXJ6 whole entry): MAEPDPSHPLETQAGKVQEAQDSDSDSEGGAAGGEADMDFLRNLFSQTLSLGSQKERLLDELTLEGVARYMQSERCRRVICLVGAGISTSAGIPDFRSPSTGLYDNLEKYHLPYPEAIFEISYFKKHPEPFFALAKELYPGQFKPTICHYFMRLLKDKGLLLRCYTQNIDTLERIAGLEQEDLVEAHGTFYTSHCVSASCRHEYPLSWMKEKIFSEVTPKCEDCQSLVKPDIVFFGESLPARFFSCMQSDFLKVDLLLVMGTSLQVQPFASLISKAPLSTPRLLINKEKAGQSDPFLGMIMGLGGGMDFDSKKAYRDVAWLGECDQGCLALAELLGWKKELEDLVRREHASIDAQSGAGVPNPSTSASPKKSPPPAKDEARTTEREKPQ
Description: Modulation of sirtuin activity by compounds was assessed using the Flour de Lys fluorescent biochemical assay in a 96-well format as described (Outeiro et al., 2007). The deacetylation reaction was performed at 37° C. for an hour in the presence of human recombinant enzymes: SIRT1 (BioMol-SE-239) 1 unit/per reaction, SIRT2 (BioMol-SE-251) 5 units/per reaction, or SIRT3 (BioMol-SE-270) 5 units/per reaction, compound of interest, standard buffer, 50 μM substrate, and 500 μM NAD^+ according to the manufacturer's protocol. […]

NRF2/KEAP1 in MEFs = experiment: NQO1 and NRF2 levels in mouse embryonic fibroblasts (MEFs), western blot; assay type: cell-based; conditions: wild-type MEFs; for Accumulation of total NRF2 protein: 5 hr exposure
Description: Mouse embryonic fibroblasts (MEFs) from wild-type (WT), NRF2-knockout (NRF2-KO) or KEAP1-knockout (KEAP1-KO) mice, were cultured in plastic dishes (Invitrogen) coated for 30 min with 0.1% (w/v) gelatin before use. The cell culture medium was Iscoves Modified Dulbecco's Medium (with L-glutamine) supplemented with human recombinant epidermal growth factor (10 ng/mL), 1× insulin/transferrin/selenium, and 10% (v/v) heat-inactivated FBS, all from Invitrogen. Cells were maintained at 5% CO2 in air at 37° C. For experiments, cells (250,000 per well) were grown for 24 hr on 6-well plates, and then treated with solvent control (0.1% DMSO, v/v) or compounds for either 5 hr or 24 hr. For western blot analysis, cells were washed twice with ice-cold phosphate buffered saline (PBS) and lysed in 150 μl of RIPA buffer (50 mM Tris-Cl pH 7.5, 150 mM NaCl, 0.5% sodium deoxycholate, 1% NP-40, 0.1% SDS and 1 mM EDTA), containing 1 protease inhibitor cocktail tablet (Roche) per 10 ml of buffer. Cell debris were removed by centrifugation at 16,300×g for […] at 4° C., and protein concentrations were determined by the BCA assay (Thermo). Proteins were resolved by SDS/PAGE, transferred to immobilon-P membranes, and probed with specific antibodies against NQO1 (1:1000) or NRF2 (1:1000). Equal loading was confirmed by probing the blots with an antibody against β-actin (mouse monoclonal, 1:10000), from Sigma, Dorset, United Kingdom.
For nuclear-cytoplasmic separation, WT MEFs (500,000 per dish) were grown for 24 hr on 6-cm plates, and then treated with solvent control (0.1% DMSO, v/v) or 0.5 μM MIND4-17. At the end of each treatment time, cells were placed on ice and washed twice with ice-cold PBS and subsequently lysed in buffer A [10 mM KCl, 5 mM MgCl2, 50 mM Tris-HCl (pH 7.5), 0.5% Nonidet P-40 (Roche), 1 mM dithioretitol (DTT) (Sigma), containing one protease inhibitor tablet and one phosphatase inhibitor tablet (both from Roche) per each 10 ml of buffer]. The lysates were subjected to centrifugation (Spectrafuge 24D, Labnet) at 1,000×g for 5 min at 4° C. The supernatant (cytoplasmic fraction) was transferred to a fresh Eppendorf tube. The pellet (nuclear fraction) was washed three times in buffer A before being dissolved in buffer B [2% SDS, 150 mM NaCl, 65 mM Tris-HCl (pH 8.0)] and sonicated for 30 sec. Finally, the lysates were subjected to western blot analysis. The blots were probed with antibodies against GAPDH (rabbit polyclonal, 1:5000) and Lamin A/C (rabbit polyclonal, 1:1000, Gene Tex, Calif., United States of America) to confirm fraction purity and equal protein loading.

Row | SMILES | Expression of NQO1 protein [1] | Induction of Nrf2-responsive proteins NQO1 and GCLM [2] | Effect of GSH pre-incubation on NQO1 inducer potency (NQO1) | CD value (Concentration which Doubles the specific activity of NQO1) (NQO1) [µM] | EC (2-fold NQO1 activity) (NQO1) [µM] | IC50 ([3]; Table 1) [µM] | IC50 ([3]; Table 3) [µM] | SIRT2 inhibition [3] | Accumulation of total NRF2 protein (NRF2/KEAP1 in MEFs) | GCLM expression [1] | NRF2 levels in nuclear and cytoplasmic fractions (NRF2/KEAP1 in MEFs; 0.5 μM, from 30 min, elevated for at least 5 hr)
1 | O=[N+]([O-])c1ccc(Sc2nnc(COc3ccccc3)n2-c2ccccc2)c2ncccc12 [MIND4, 5-nitro-8-{[5-(phenoxymethyl)-4-phenyl-4H-1,2,4-triazol-3-yl]thio}quinoline] | increased the expression of NQO1 protein to the same extent | dose-dependent induction | much less pronounced effect | 1.3 | 1.3 | 1.7 | 3.5 | dose-dependent and selective inhibition of human recombinant SIRT2 deacetylase | to much lesser extent | – | –
2 | O=[N+]([O-])c1ccc(Sc2nnc(COc3ccccc3)n2-c2ccccc2)nc1 [MIND4-17] | increased the expression of NQO1 protein to the same extent | dose-dependent induction | drastically reduced the potency | 0.15 | 0.15 | – | > 50 | no inhibitory activity; also recorded: no detectable SIRT2 inhibition activity | readily detectable | more potent inducer of GCLM expression | increase of NRF2 levels was detected
